Measurements from patent publication US6355799B1, “Substituted benzene compounds, process for their preparation, and herbicidal and defoliant compositions containing them” (ISK Americas Incorporated, priority 1997, dated 2002).

Tests used:
Format in all cases: in vivo
[1] = test system: lambsquarters (Chenopodium album, CHEAL); experiment: Pre-emerge test, greenhouse herbicide activity screening; conditions: rating scale 0-100, 14 days after application
Method in brief: (§1)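 Plants grown in 10 cm pots of sandy loam mix received acetone-dissolved compounds through a moving flat-fan nozzle. Doses ranged from 15 to 1000 g ai/ha. Pre-emerge pots were seeded one day earlier, post-emerge pots 8–21 days earlier. Fourteen days on, each pot was graded 0–100 for damage.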

[2] = test system: velvetleaf (Abutilon theophrasti, ABUTH); experiment: as above; conditions: rating scale 0-100, 14 days after application
Method in brief: as §1

[3] = test system: sicklepod (Cassia obtusifolia, CASOB); experiment: as above; conditions: rating scale 0-100, 14 days after application
Method in brief: as §1

[4] = test system: large crabgrass (Digitaria sanguinalis, DIGSA); experiment: as above; conditions: rating scale 0-100, 14 days after application
Method in brief: as §1

[5] = test system: green foxtail (Setaria viridis, SETVI); experiment: as above; conditions: rating scale 0-100, 14 days after application
Method in brief: as §1

[6] = test system: barnyardgrass (Echinochloa crus-galli, ECHCG); experiment: as above; conditions: rating scale 0-100, 14 days after application
Method in brief: as §1

[7] = test system: ivyleaf morningglory (Ipomoea hederacea, IPOHE); experiment: as above; conditions: rating scale 0-100, 14 days after application
Method in brief: as §1

[8] = test system: johnsongrass (Sorghum halepense, SORHA); experiment: as above; conditions: rating scale 0-100, 14 days after application
Method in brief: as §1

[9] = test system: field corn (Zea mays L., var. Dekalb 535, CORN); experiment: Pre-emerge test, crop safety; conditions: rating scale 0-100, 14 days after application
Method in brief: (§2)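 Compounds in acetone were track-sprayed at 15-1000 g ai/ha (187 l/ha) on sandy loam pots: pre-emerge one day after seeding, post-emerge at 2-3 leaf stage with 0.25% v/v non-ionic surfactant. Phytotoxicity was rated 14 days later on a 0 (no damage) to 100 (complete death) scale.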

[10] = test system: upland rice (Oryza sp., var. Tebonnet, RICE); experiment: Pre-emerge test, crop safety; conditions: rating scale 0-100, 14 days after application
Method in brief: as §2

[11] = test system: field corn (Zea mays L., var. Dekalb 535, CORN); experiment: Post-emerge test, crop safety; conditions: rating scale 0-100 (0 no damage, 100 complete death), 14 days after application
Method in brief: (§3)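 Each test used a mechanized track sprayer delivering 187 l/ha of acetone solution at 15–1000 g ai/ha. Post-emerge foliage at 2–3 leaves was treated with added 0.25% v/v non-ionic surfactant and bottom-watered only. Injury was assessed on day 14, where 100 means total kill.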

[12] = test system: upland rice (Oryza sp., var. Tebonnet, RICE); experiment: Post-emerge test, crop safety; conditions: rating scale 0-100 (0 no damage, 100 complete death), 14 days after application
Method in brief: as §3

[13] = test system: lambsquarters (Chenopodium album, CHEAL); experiment: Post-emerge test, greenhouse herbicide activity screening; conditions: rating scale 0-100 (0 no damage, 100 complete death), 14 days after application
Method in brief: as §2

[14] = test system: velvetleaf (Abutilon theophrasti, ABUTH); experiment: as above; conditions: rating scale 0-100 (0 no damage, 100 complete death), 14 days after application
Method in brief: as §2

[15] = test system: redroot pigweed (Amaranthus retroflexus, AMARE); experiment: as above; conditions: rating scale 0-100 (0 no damage, 100 complete death), 14 days after application
Method in brief: as §2

[16] = test system: sicklepod (Cassia obtusifolia, CASOB); experiment: as above; conditions: rating scale 0-100 (0 no damage, 100 complete death), 14 days after application
Method in brief: as §2

[17] = test system: large crabgrass (Digitaria sanguinalis, DIGSA); experiment: as above; conditions: rating scale 0-100 (0 no damage, 100 complete death), 14 days after application
Method in brief: as §2

[18] = test system: green foxtail (Setaria viridis, SETVI); experiment: as above; conditions: rating scale 0-100 (0 no damage, 100 complete death), 14 days after application
Method in brief: as §2

[19] = test system: barnyardgrass (Echinochloa crus-galli, ECHCG); experiment: as above; conditions: rating scale 0-100 (0 no damage, 100 complete death), 14 days after application
Method in brief: as §2

[20] = test system: ivyleaf morningglory (Ipomoea hederacea, IPOHE); experiment: as above; conditions: rating scale 0-100 (0 no damage, 100 complete death), 14 days after application
Method in brief: as §2

[21] = test system: johnsongrass (Sorghum halepense, SORHA); experiment: as above; conditions: rating scale 0-100 (0 no damage, 100 complete death), 14 days after application
Method in brief: as §2

[22] = test system: redroot pigweed (Amaranthus retroflexus, AMARE); experiment: Pre-emerge test, greenhouse herbicide activity screening; conditions: rating scale 0-100, 14 days after application
Method in brief: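 Rating: 0–100 visual injury, 14 DAA. Application: acetone, 187 l/ha, 15–1000 g ai/ha, flat-fan track sprayer with nozzle 40–45 cm above soil or canopy. Post-emerge runs used 0.25% v/v surfactant on 2–3 leaf plants.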

COc1c(Cl)cc(F)c(-n2c(=O)cc(C(F)(F)F)n(C)c2=O)c1CC(Cl)C(=O)OCCC(C)C (single isomer, unassigned) [14-16]
Pre-emerge herbicidal activity, phytotoxicity rating CHEAL ([1]; 63 g ai/ha): 100
Pre-emerge herbicidal activity, phytotoxicity rating CHEAL ([1]; 250 g ai/ha): 100
Pre-emerge herbicidal activity, phytotoxicity rating ABUTH ([2]; 63 g ai/ha): 0
Pre-emerge herbicidal activity, phytotoxicity rating ABUTH ([2]; 250 g ai/ha): 90
Pre-emerge herbicidal activity, phytotoxicity rating CASOB ([3]; 63 g ai/ha): 0
Pre-emerge herbicidal activity, phytotoxicity rating CASOB ([3]; 250 g ai/ha): 0
Pre-emerge herbicidal activity, phytotoxicity rating DIGSA ([4]; 63 g ai/ha): 50
Pre-emerge herbicidal activity, phytotoxicity rating DIGSA ([4]; 250 g ai/ha): 100
Pre-emerge herbicidal activity, phytotoxicity rating SETVI ([5]; 63 g ai/ha): 0
Pre-emerge herbicidal activity, phytotoxicity rating SETVI ([5]; 250 g ai/ha): 0
Pre-emerge herbicidal activity, phytotoxicity rating ECHCG ([6]; 63 g ai/ha): 0
Pre-emerge herbicidal activity, phytotoxicity rating ECHCG ([6]; 250 g ai/ha): 0
Pre-emerge herbicidal activity, phytotoxicity rating IPOHE ([7]; 63 g ai/ha): 0
Pre-emerge herbicidal activity, phytotoxicity rating IPOHE ([7]; 250 g ai/ha): 0
Pre-emerge herbicidal activity, phytotoxicity rating SORHA ([8]; 63 g ai/ha): 0
Pre-emerge herbicidal activity, phytotoxicity rating SORHA ([8]; 250 g ai/ha): 0
Pre-emerge phytotoxicity rating, crop damage CORN ([9]; 63 g ai/ha): 0
Pre-emerge phytotoxicity rating, crop damage CORN ([9]; 250 g ai/ha): 0
Pre-emerge phytotoxicity rating, crop damage RICE ([10]; 63 g ai/ha): 0
Pre-emerge phytotoxicity rating, crop damage RICE ([10]; 250 g ai/ha): 0
Post-emerge phytotoxicity rating CORN (crop damage) ([11]; Rate 63 g ai/ha): 0
Post-emerge phytotoxicity rating CORN (crop damage) ([11]; Rate 250 g ai/ha): 70
Post-emerge phytotoxicity rating RICE (crop damage) ([12]; Rate 63 g ai/ha): 0
Post-emerge phytotoxicity rating RICE (crop damage) ([12]; Rate 250 g ai/ha): 10
Post-emerge Herbicidal Activity, phytotoxicity rating CHEAL ([13]; Rate 63 g ai/ha): 95
Post-emerge Herbicidal Activity, phytotoxicity rating CHEAL ([13]; Rate 250 g ai/ha): 100
Post-emerge Herbicidal Activity, phytotoxicity rating ABUTH ([14]; Rate 63 g ai/ha): 60
Post-emerge Herbicidal Activity, phytotoxicity rating ABUTH ([14]; Rate 250 g ai/ha): 100
Post-emerge Herbicidal Activity, phytotoxicity rating AMARE ([15]; Rate 63 g ai/ha): 60
Post-emerge Herbicidal Activity, phytotoxicity rating AMARE ([15]; Rate 250 g ai/ha): 100
Post-emerge Herbicidal Activity, phytotoxicity rating CASOB ([16]; Rate 63 g ai/ha): 20
Post-emerge Herbicidal Activity, phytotoxicity rating CASOB ([16]; Rate 250 g ai/ha): 40
Post-emerge Herbicidal Activity, phytotoxicity rating DIGSA ([17]; Rate 63 g ai/ha): 90
Post-emerge Herbicidal Activity, phytotoxicity rating DIGSA ([17]; Rate 250 g ai/ha): 100
Post-emerge Herbicidal Activity, phytotoxicity rating SETVI ([18]; Rate 63 g ai/ha): 0
Post-emerge Herbicidal Activity, phytotoxicity rating SETVI ([18]; Rate 250 g ai/ha): 30
Post-emerge Herbicidal Activity, phytotoxicity rating ECHCG ([19]; Rate 63 g ai/ha): 95
Post-emerge Herbicidal Activity, phytotoxicity rating ECHCG ([19]; Rate 250 g ai/ha): 100
Post-emerge Herbicidal Activity, phytotoxicity rating IPOHE ([20]; Rate 63 g ai/ha): 40
Post-emerge Herbicidal Activity, phytotoxicity rating IPOHE ([20]; Rate 250 g ai/ha): 50
Post-emerge Herbicidal Activity, phytotoxicity rating SORHA ([21]; Rate 63 g ai/ha): 0
Post-emerge Herbicidal Activity, phytotoxicity rating SORHA ([21]; Rate 250 g ai/ha): 30
Pre-emerge herbicidal activity, phytotoxicity rating AMARE ([22]; 63 g ai/ha): 100
Pre-emerge herbicidal activity, phytotoxicity rating AMARE ([22]; 250 g ai/ha): 100
